In US20040142923A1, “Pyrrolidine sulfonamides” (priority 2003, published 2004):

Biological target: human and rat GPR-14
Experiment: Radioligand binding ([125I] h-U-II)
Details: radioligand binding assay; HEK-293 cell membranes, 200 pM [125I] h-U-II; species (human or rat) not given
Experimental: HEK-293 cell membranes containing stable cloned human and rat GPR-14 (20 ug/assay) were incubated with 200 pM [125I] h-U-II (200 Ci/mmol^−1 in the presence of increasing concentrations of test compounds in DMSO (0.1 nM to 10 uM), in a final incubation volume of 200 ul (20 mM Tris-HCl, 5 mM MgCl2). Incubation was done for 30 minutes at room temperature followed by filtration GF/B filters with Brandel cell harvester. ^125I labeled U-II binding was quantitated by gamma counting. Nonspecific binding was defined by ^125I U-II binding in the presence of 100 nM of unlabeled human U-II. Analysis of the data was performed by nonlinear least square fitting.

Ki: 1500 nM
Compound: O=C(NC1CCN(S(=O)(=O)c2cc(Cl)c(OC3CCNCC3)c(Cl)c2)C1)c1ccc(Cl)c(Cl)c1 (stereo not shown) [Example 5]
